Among the test systems are SK-MEL-5 melanoma; IGROV1 ovarian; NCI-H522 lung; UACC-62 melanoma; HCC-2998 colon; UACC-257 melanoma; OVCAR-8 ovarian; K-562 leukemia; SW-620 colon; EKVX NSCLC.
Common to all, as to assay: growth of human tumour cells (NCI), 48 h

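Grown in 96-well plates, cells were treated for 48 hours with each compound at five concentrations. Insufficient inhibition: endpoint recorded as highest concentration tested. GI50 is the concentration that inhibits growth by half. TGI marks complete inhibition of growth.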

On to `FC(F)(F)c1ccc(-c2cnc(Br)nc2NC2CCCCCC2)cc1`, for which the GI50 with SK-MEL-5 melanoma was 29.1 µM; in the test with IGROV1 ovarian, more than 100 µM; in the test on NCI-H522 lung, 28.3 µM; in the test on UACC-62 melanoma, 42.6 µM; with HCC-2998 colon it was more than 100 µM; in the test with UACC-257 melanoma, 63.4 µM. The values for the GI50 in the test with OVCAR-8 ovarian, with K-562 leukemia and in the test on SW-620 colon were more than 100 µM, 50.4 µM and 96.7 µM, respectively. Also, the TGI with SK-MEL-5 melanoma, in the test with IGROV1 ovarian, in the test with NCI-H522 lung, in the test on UACC-62 melanoma, in the test on HCC-2998 colon and with UACC-257 melanoma was more than 100 µM in each case. For the same molecule, the TGI in the test on OVCAR-8 ovarian, in the test on K-562 leukemia and in the test on SW-620 colon was more than 100 µM each time.
On to `CCOC(=O)C(C[Si](C)(C)C)P(=O)(OCC)OCC` (centres undefined), for which the TGI in the test with SK-MEL-5 melanoma, in the test on IGROV1 ovarian, in the test with NCI-H522 lung, in the test with UACC-62 melanoma, in the test with HCC-2998 colon and in the test on UACC-257 melanoma was more than 100 µM each time. Besides, the TGI with OVCAR-8 ovarian, in the test on K-562 leukemia and in the test on SW-620 colon was more than 100 µM in each case.
With `O=[N+]([O-])c1ccccc1C1N2CCCCC2[C@@H]2c3[nH]c4ccccc4c3CCN12` (some centres undefined), the TGI in the test with SK-MEL-5 melanoma is 26.2 µM; with IGROV1 ovarian, 40.9 µM; in the test with UACC-62 melanoma, 14.4 µM; in the test with UACC-257 melanoma it was 26.7 µM; with OVCAR-8 ovarian it was 39.1 µM; with K-562 leukemia, 14 µM. Also, the figures for the TGI with SW-620 colon and in the test with EKVX NSCLC were 23.4 µM and 41.3 µM, respectively.
Regarding `COc1ccc(/C=C2\N=C3SC=C(N)N3C2=O)cc1`, the GI50 is 0.833 µM in the test with SK-MEL-5 melanoma; 0.499 µM with IGROV1 ovarian; 0.314 µM with NCI-H522 lung; 1.07 µM in the test with UACC-62 melanoma; 1.65 µM in the test on HCC-2998 colon; 1.06 µM in the test on UACC-257 melanoma. In addition, the results for the GI50 in the test with OVCAR-8 ovarian, in the test on K-562 leukemia and in the test with SW-620 colon were 1.44 µM, 1.56 µM and 1.34 µM, respectively. The TGI amounted to 2.64 µM with SK-MEL-5 melanoma; 2.39 µM with IGROV1 ovarian; 1.5 µM in the test on NCI-H522 lung; 2.76 µM in the test with UACC-62 melanoma; 3.28 µM with HCC-2998 colon; 5.33 µM in the test on UACC-257 melanoma. The TGI in the test on OVCAR-8 ovarian turned out to be 10.4 µM; with K-562 leukemia it was 17.3 µM; with SW-620 colon it was 6.07 µM.
Turning to `CC(C)(C)CC(C)(C)c1ccc(OCCOCCSC(=N)N)cc1`, the GI50 in the test with IGROV1 ovarian was 2.3 µM; in the test on NCI-H522 lung, 1.71 µM; in the test with UACC-62 melanoma, 1.75 µM; in the test with HCC-2998 colon, 1.25 µM; with UACC-257 melanoma it was 1.69 µM; in the test on OVCAR-8 ovarian, 1.86 µM. Further, the results for the GI50 in the test on K-562 leukemia and in the test with SW-620 colon were 1.51 µM and 1.65 µM, respectively. In addition, the TGI in the test on IGROV1 ovarian came to 4.81 µM; with NCI-H522 lung, 3.18 µM; with UACC-62 melanoma, 3.24 µM; in the test on HCC-2998 colon, 2.56 µM; in the test with UACC-257 melanoma, 3.18 µM; in the test with OVCAR-8 ovarian, 3.56 µM. Moreover, the TGI with K-562 leukemia amounted to 3.58 µM; in the test on SW-620 colon, 3.34 µM.
For the molecule `COc1ccccc1-n1c(SCc2cc(OC)c(OC)c(OC)c2)nc2ccc(Cl)cc2c1=O`, the GI50 in the test with SK-MEL-5 melanoma is 1.47 µM; in the test with IGROV1 ovarian, 10.9 µM; in the test with NCI-H522 lung, 2.61 µM; in the test with UACC-62 melanoma it was 3.04 µM; in the test with HCC-2998 colon, 7.8 µM; in the test with UACC-257 melanoma it was 5.7 µM. Also, the GI50 is 8.86 µM in the test on OVCAR-8 ovarian, 1.02 µM with K-562 leukemia and 2.59 µM in the test on SW-620 colon. Moreover, the TGI in the test with SK-MEL-5 melanoma, in the test with IGROV1 ovarian, in the test on NCI-H522 lung, in the test on UACC-62 melanoma, in the test on HCC-2998 colon and in the test on UACC-257 melanoma was more than 100 µM in each case. In addition, the TGI in the test with OVCAR-8 ovarian, in the test with K-562 leukemia and with SW-620 colon was more than 100 µM in each case.
For the molecule `CC(=O)OC1CCC2(C)C(=CC(C3C=C4CC(OC(C)=O)CCC4(C)C4=C3C3CC5OC6(CCC(C)CO6)C(C)C5C3(C)CC4)C3=C2CCC2(C)C3CC3OC4(CCC(C)CO4)C(C)C32)C1` (centres undefined), the TGI with SK-MEL-5 melanoma was determined as 25.7 µM; in the test with IGROV1 ovarian, 23.6 µM; with NCI-H522 lung, 19.4 µM; with UACC-62 melanoma, 26.1 µM; in the test on UACC-257 melanoma, 21.9 µM; in the test with OVCAR-8 ovarian, 23.1 µM. For the same molecule, the results for the TGI with K-562 leukemia and in the test on EKVX NSCLC were 15.2 µM and 37.1 µM, respectively.
In the case of `COc1ccc(C2S/C(=C\c3ccc(OC)cc3OC)C(=O)N2NC(=O)Cc2ccccc2)cc1` (centres undefined), the TGI in the test with SK-MEL-5 melanoma, in the test with IGROV1 ovarian, in the test with NCI-H522 lung, in the test on UACC-62 melanoma, in the test with UACC-257 melanoma and in the test with OVCAR-8 ovarian was more than 100 µM in each case. Besides, the TGI with K-562 leukemia and with SW-620 colon was more than 100 µM in each case.
As for `COc1ccccc1/C=C\c1cc(OC)c(OC)c(OC)c1`, the TGI with SK-MEL-5 melanoma was 13.5 µM; in the test on IGROV1 ovarian it was more than 100 µM; in the test on NCI-H522 lung, 45.5 µM; in the test with UACC-62 melanoma, more than 100 µM; in the test on UACC-257 melanoma, more than 100 µM; in the test with OVCAR-8 ovarian, more than 100 µM. The TGI in the test with K-562 leukemia, with SW-620 colon and in the test with EKVX NSCLC was more than 100 µM throughout.
Regarding `O=Nc1c(O)ccc2ccccc12`, the GI50 is 1.46 µM in the test on SK-MEL-5 melanoma; 2.15 µM in the test on IGROV1 ovarian; 2.06 µM in the test on NCI-H522 lung; 1.86 µM with UACC-62 melanoma; 13.4 µM in the test on HCC-2998 colon; 1.64 µM in the test on UACC-257 melanoma. The GI50 in the test with OVCAR-8 ovarian is 2.28 µM; with K-562 leukemia, 3.49 µM; in the test with SW-620 colon, 2.46 µM. The TGI with SK-MEL-5 melanoma amounted to 2.85 µM; in the test on IGROV1 ovarian, 5.78 µM; in the test on NCI-H522 lung, 4.25 µM; in the test with UACC-62 melanoma, 3.83 µM; in the test on HCC-2998 colon, 27.9 µM; in the test on UACC-257 melanoma it was 3.2 µM. Also, the TGI was determined as 7.04 µM in the test on OVCAR-8 ovarian, 16.8 µM in the test on K-562 leukemia and 8.04 µM with SW-620 colon.
On to `CC(=O)/C(C)=N/N/C(N)=N\S(=O)(=O)c1cc(C(=O)Nc2ccccc2)c(Cl)cc1SCc1ccccc1`, for which the GI50 in the test on SK-MEL-5 melanoma is 24 µM; with IGROV1 ovarian it was 29.9 µM; in the test on NCI-H522 lung it was 64.7 µM; in the test on UACC-62 melanoma it was 16.4 µM; in the test on UACC-257 melanoma it was 34.8 µM; in the test on OVCAR-8 ovarian, 8.6 µM. Moreover, the results for the GI50 in the test on K-562 leukemia and in the test on EKVX NSCLC were 5.54 µM and 6.62 µM, respectively. Besides, the TGI in the test with SK-MEL-5 melanoma, with IGROV1 ovarian, in the test with NCI-H522 lung, in the test on UACC-62 melanoma, in the test with UACC-257 melanoma and in the test on OVCAR-8 ovarian was more than 100 µM each time. Further, the TGI in the test on K-562 leukemia is more than 100 µM; in the test with EKVX NSCLC, 39.5 µM.
As to `Cc1ccc(N2C(=O)/C(=C3\Sc4c(nc(C)[nH]c4=O)N3c3ccccc3)SC2=S)cc1`, the TGI in the test on SK-MEL-5 melanoma, with IGROV1 ovarian, in the test on NCI-H522 lung, with UACC-62 melanoma, in the test on UACC-257 melanoma and in the test with OVCAR-8 ovarian was more than 100 µM in each case. For the same molecule, the TGI in the test on K-562 leukemia is 95.8 µM; in the test with SW-620 colon, more than 100 µM; with EKVX NSCLC, more than 100 µM.
For the molecule `O=Cc1coc2ccccc2c1=O`, the TGI in the test with SK-MEL-5 melanoma was 39 µM; in the test with IGROV1 ovarian it was 41.4 µM; in the test with NCI-H522 lung it was 48.1 µM; in the test with UACC-62 melanoma, 52.8 µM; in the test on UACC-257 melanoma, 46.7 µM; with OVCAR-8 ovarian, 35.3 µM. The TGI with K-562 leukemia came out at 55.5 µM; in the test with SW-620 colon, 41.5 µM; in the test with EKVX NSCLC, 49.9 µM.
With `COC1=C(OC)CCC(/C(C#N)=C/c2ccc(OC)c(OC)c2)=C1`, the TGI in the test on SK-MEL-5 melanoma was more than 100 µM; in the test on IGROV1 ovarian it was more than 100 µM; with NCI-H522 lung it was 70.5 µM; in the test on UACC-62 melanoma, more than 100 µM; in the test with HCC-2998 colon, more than 100 µM; in the test on UACC-257 melanoma it was more than 100 µM. Further, the TGI with OVCAR-8 ovarian, with K-562 leukemia and in the test on SW-620 colon was more than 100 µM each time.
As to `CCNCC(O)c1ccc(N)c([N+](=O)[O-])c1` (centres undefined), the TGI in the test with SK-MEL-5 melanoma, with IGROV1 ovarian, with NCI-H522 lung, with UACC-62 melanoma, in the test with UACC-257 melanoma and in the test on OVCAR-8 ovarian was more than 100 µM in each case. Further, the TGI in the test on K-562 leukemia, in the test with SW-620 colon and in the test with EKVX NSCLC was more than 100 µM each time.
Take `Cc1cc(C)nc(NS(=O)(=O)c2ccc(NC(=O)c3cccc4cc5ccccc5nc34)cc2)n1`: the TGI in the test with SK-MEL-5 melanoma is more than 100 µM; in the test with IGROV1 ovarian, more than 100 µM; with NCI-H522 lung, 54.3 µM; in the test with UACC-62 melanoma, 79.3 µM; in the test with UACC-257 melanoma, more than 100 µM; with OVCAR-8 ovarian it was more than 100 µM. Moreover, the TGI with K-562 leukemia, in the test with SW-620 colon and in the test on EKVX NSCLC was more than 100 µM each time.
For `CCOC(=O)C12CC1(C(=O)OCC)C1CCC2C1` (centres undefined), the TGI in the test with SK-MEL-5 melanoma, with IGROV1 ovarian, in the test on UACC-62 melanoma, in the test on HCC-2998 colon, in the test with UACC-257 melanoma and with OVCAR-8 ovarian was more than 100 µM throughout. For the same molecule, the TGI in the test with K-562 leukemia and in the test with SW-620 colon was more than 100 µM in each case.
